Square brackets hold non-standard residues; d marks the D form. Peptide text beside a SMILES is read from it. Orn = NCCC[C@H](N)C(=O)O; βAla = NCCC(=O)O
System: MYC promoter and putative enhancer regions
Assay: CUT&RUN qPCR, coactivator complex recruitment (PolII, BRD4, SMARCA4)
Format: cell-based, human
Description: We next examined the molecular mechanism of MYC down-regulation by VGN50. We first utilized Cleavage under targets & release using nuclease (CUT&RUN)-sequencing to examine histone modifications that are known to be associated with enhancers in order to map putative MYC enhancer regions in PEL cells (Fig. 5a). Genome-wide CUT&RUN studies identified putative enhancer and promoter regulatory regions that are marked by H3K27Ac, H3K4me1, POLR2A (RNAPII), BRD4, and SMARCC1, a component of the SWI/SNF complex (Fig. 1b and 5a). The identified putative MYC enhancers were also in good agreement with previous ChIP Hi-C[53] and ChIP-seq data sets[54]. Specific primer pairs were then designed to amplify the respective enhancer regions and to examine regulation of coactivator complex recruitment by VGN50.
Fig. 5 A molecular mechanism of VGN50-mediated MYC-down-regulation. a Cleavage under targets & release using nuclease (CUT&RUN). CUT&RUN was performed with BCBL-1 and BC-1 with the indicated antibodies. Enrichment of active histone modifications, and occupancies of RNAPII and SWI/SNF components at the MYC genomic region are shown as peaks. One of the biological duplicate samples for the BCBL-1 cell line is presented. […] The MYC promoter, enhancer, and negative control regions used for qPCR analyses are indicated with shading. The positions of the MYC coding region, CASC11 coding region, and long non-coding RNA, PVT1, MIR1208 are shown in the panel. b VGN50 inhibits coactivator complex recruitment and c reduces H3K27Ac modification. qPCR is used to examine enrichment of DNA fragments in the presence of VGN50 or mutant peptide (24 μM). Peptide was applied 1 h prior to processing samples for CUT&RUN to replicate SLAM-seq experimental conditions. Non-specific IgG control was also included and enrichment with IgG control at each genomic region was set as 1 for b, and spiked-in luciferase plasmid DNA was used for additional internal control for c. d Formation of a larger protein complex with VGN50. Sucrose gradient sedimentation was used to monitor changes in protein complex formation in the presence of VGN50. The experiment flow chart is shown at the top of this panel. Fractions were collected from top (#1) to bottom (#23/24). Sample #24 without peptide is a smaller fraction of residual samples. Immunoblotting was performed on the odd number samples and the remaining fraction (#24 for no peptide sample) and probed with Flag-tagged SWI/SNF components (SMARCA4, SMARCC2, and SMARCB1). The position of each protein component based on molecular size is indicated. e KSHV K-Rta colocalizes with SWI/SNF components in reactivating BCBL-1 cells. TREx-BCBL-1 cells were triggered for reactivation by treatment with Dox and TPA for 28 h and stained with the indicated antibodies. Images were acquired with Keyence fluorescence microscopy. f A model for VGN50 molecular action. A model depicting the putative molecular action of VGN50 is presented. Coactivator complexes are dynamically assembled on enhancer and promoter regions via transcription factor binding. VGN50, an IDR fragment derived from an exceptionally potent viral transactivator, flexibly interacts with components of coactivators and traps them, thus reduces the available resources for cellular enhancers to activate MYC promoters.
CUT&RUN[72] was performed essentially by following the online protocol developed by Dr. Henikoff’s lab with a few modifications to fit our needs. Cells were washed with PBS and wash buffer [20 mM HEPES-KOH pH 7.5, 150 mM NaCl, 0.5 mM Spermidine (Sigma, S2626), and proteinase inhibitor (Roche)]. After removing the wash buffer, cells were captured on magnetic concanavalin A (ConA) beads (Polysciences, PA, USA) in the presence of CaCl2. […]

[1] = MYC region E1, peptide 24 μM 1 h, IgG set as 1, replicate 1
[2] = MYC region E1, peptide 24 μM 1 h, IgG set as 1, replicate 2
[3] = MYC region E1, peptide 24 μM 1 h, IgG set as 1, replicate 3
[4] = MYC region E2, peptide 24 μM 1 h, IgG set as 1, replicate 1
[5] = MYC region E2, peptide 24 μM 1 h, IgG set as 1, replicate 2
[6] = MYC region E2, peptide 24 μM 1 h, IgG set as 1, replicate 3
[7] = MYC region E3, peptide 24 μM 1 h, IgG set as 1, replicate 1
[8] = MYC region E3, peptide 24 μM 1 h, IgG set as 1, replicate 2
[9] = MYC region E3, peptide 24 μM 1 h, IgG set as 1, replicate 3
[10] = MYC region P1, peptide 24 μM 1 h, IgG set as 1, replicate 1
[11] = MYC region P1, peptide 24 μM 1 h, IgG set as 1, replicate 2
[12] = MYC region P1, peptide 24 μM 1 h, IgG set as 1, replicate 3
[13] = Myc Control region, peptide 24 μM 1 h, IgG set as 1, replicate 1
[14] = Myc Control region, peptide 24 μM 1 h, IgG set as 1, replicate 2
[15] = Myc Control region, peptide 24 μM 1 h, IgG set as 1, replicate 3

CC(C)C[C@H](NC(=O)CCNC(=O)[C@H](CCCNC(=N)N)NC(=O)[C@H](CCCNC(=N)N)NC(=O)[C@H](CCCNC(=N)N)NC(=O)[C@H](CCCN)NC(=O)[C@H](CCCNC(=N)N)NC(=O)[C@H](CCCNC(=N)N)NC(=O)[C@H](CCCCN)NC(=O)[C@H](CCCCN)NC(=O)[C@H](N)CCCNC(=N)N)C(=O)N[C@@H](CO)C(=O)N[C@@H](CO)C(=O)N[C@@H](C)C(=O)N[C@@H](C)C(=O)N[C@@H](C)C(=O)NCC(=O)N[C@@H](CC(C)C)C(=O)N[C@@H](Cc1ccc(O)cc1)C(=O)N[C@@H](CCC(N)=O)C(=O)N[C@@H](CC(C)C)C(=O)N[C@@H](CC(=O)O)C(=O)N[C@H](C(=O)O)[C@@H](C)O [Mt-P] (H-[dR]KKRR[Orn]RRR[βAla]LSSAAAGLYQLDT-OH; N-terminus and C-terminus assumed)
BRD4 enrichment, CUT&RUN qPCR [1]: 3.57 | PolII enrichment, CUT&RUN qPCR [1]: 2.89 | SMARCA4 enrichment, CUT&RUN qPCR [1]: 1.44 | BRD4 enrichment, CUT&RUN qPCR [2]: 3.47 | PolII enrichment, CUT&RUN qPCR [2]: 2.18 | SMARCA4 enrichment, CUT&RUN qPCR [2]: 1.11 | BRD4 enrichment, CUT&RUN qPCR [3]: 3.30 | PolII enrichment, CUT&RUN qPCR [3]: 2.41 | SMARCA4 enrichment, CUT&RUN qPCR [3]: 1.32 | BRD4 enrichment, CUT&RUN qPCR [4]: 6.92 | PolII enrichment, CUT&RUN qPCR [4]: 9.68 | SMARCA4 enrichment, CUT&RUN qPCR [4]: 2.57 | BRD4 enrichment, CUT&RUN qPCR [5]: 6.75 | PolII enrichment, CUT&RUN qPCR [5]: 10.09 | SMARCA4 enrichment, CUT&RUN qPCR [5]: 2.47 | BRD4 enrichment, CUT&RUN qPCR [6]: 7.28 | PolII enrichment, CUT&RUN qPCR [6]: 9.27 | SMARCA4 enrichment, CUT&RUN qPCR [6]: 2.05 | BRD4 enrichment, CUT&RUN qPCR [7]: 7.28 | PolII enrichment, CUT&RUN qPCR [7]: 10.61 | SMARCA4 enrichment, CUT&RUN qPCR [7]: 2.01 | BRD4 enrichment, CUT&RUN qPCR [8]: 6.68 | PolII enrichment, CUT&RUN qPCR [8]: 9.91 | SMARCA4 enrichment, CUT&RUN qPCR [8]: 2.39 | BRD4 enrichment, CUT&RUN qPCR [9]: 7.58 | PolII enrichment, CUT&RUN qPCR [9]: 10.57 | SMARCA4 enrichment, CUT&RUN qPCR [9]: 1.42 | BRD4 enrichment, CUT&RUN qPCR [10]: 8.00 | PolII enrichment, CUT&RUN qPCR [10]: 18.06 | SMARCA4 enrichment, CUT&RUN qPCR [10]: 2.48 | BRD4 enrichment, CUT&RUN qPCR [11]: 8.20 | PolII enrichment, CUT&RUN qPCR [11]: 18.31 | SMARCA4 enrichment, CUT&RUN qPCR [11]: 2.51 | BRD4 enrichment, CUT&RUN qPCR [12]: 7.99 | PolII enrichment, CUT&RUN qPCR [12]: 17.86 | SMARCA4 enrichment, CUT&RUN qPCR [12]: 2.36 | BRD4 enrichment, CUT&RUN qPCR [13]: 2.07 | PolII enrichment, CUT&RUN qPCR [13]: 2.07 | SMARCA4 enrichment, CUT&RUN qPCR [13]: 1.30 | BRD4 enrichment, CUT&RUN qPCR [14]: 1.88 | PolII enrichment, CUT&RUN qPCR [14]: 1.88 | SMARCA4 enrichment, CUT&RUN qPCR [14]: 1.17 | BRD4 enrichment, CUT&RUN qPCR [15]: 1.71 | PolII enrichment, CUT&RUN qPCR [15]: 1.71 | SMARCA4 enrichment, CUT&RUN qPCR [15]: 1.15

Reference: publication PMC8639922, “KSHV transactivator-derived small peptide traps coactivators to attenuate MYC and inhibits leukemia and lymphoma cell growth” (Communications Biology, 2021)
